This note sets out measurements from patent publication US20250376461A1, “INDAZOLE DERIVATIVES FOR TREATING TRPM3-MEDIATED DISORDERS” (Katholieke Universiteit Leuven, priority 2022, published 2025).

pIC50: −log10 of the molar value.

For this experiment, the target named is T1, mouse TRPM3α2 (mTRPM3) ion channel (Mus musculus, UniProt J9SQF3).
T1 construct: expressed in transfected cells; host or cells: flip-in HEK293
T1 sequence (J9SQF3 1-1709 isoform J9SQF3-12): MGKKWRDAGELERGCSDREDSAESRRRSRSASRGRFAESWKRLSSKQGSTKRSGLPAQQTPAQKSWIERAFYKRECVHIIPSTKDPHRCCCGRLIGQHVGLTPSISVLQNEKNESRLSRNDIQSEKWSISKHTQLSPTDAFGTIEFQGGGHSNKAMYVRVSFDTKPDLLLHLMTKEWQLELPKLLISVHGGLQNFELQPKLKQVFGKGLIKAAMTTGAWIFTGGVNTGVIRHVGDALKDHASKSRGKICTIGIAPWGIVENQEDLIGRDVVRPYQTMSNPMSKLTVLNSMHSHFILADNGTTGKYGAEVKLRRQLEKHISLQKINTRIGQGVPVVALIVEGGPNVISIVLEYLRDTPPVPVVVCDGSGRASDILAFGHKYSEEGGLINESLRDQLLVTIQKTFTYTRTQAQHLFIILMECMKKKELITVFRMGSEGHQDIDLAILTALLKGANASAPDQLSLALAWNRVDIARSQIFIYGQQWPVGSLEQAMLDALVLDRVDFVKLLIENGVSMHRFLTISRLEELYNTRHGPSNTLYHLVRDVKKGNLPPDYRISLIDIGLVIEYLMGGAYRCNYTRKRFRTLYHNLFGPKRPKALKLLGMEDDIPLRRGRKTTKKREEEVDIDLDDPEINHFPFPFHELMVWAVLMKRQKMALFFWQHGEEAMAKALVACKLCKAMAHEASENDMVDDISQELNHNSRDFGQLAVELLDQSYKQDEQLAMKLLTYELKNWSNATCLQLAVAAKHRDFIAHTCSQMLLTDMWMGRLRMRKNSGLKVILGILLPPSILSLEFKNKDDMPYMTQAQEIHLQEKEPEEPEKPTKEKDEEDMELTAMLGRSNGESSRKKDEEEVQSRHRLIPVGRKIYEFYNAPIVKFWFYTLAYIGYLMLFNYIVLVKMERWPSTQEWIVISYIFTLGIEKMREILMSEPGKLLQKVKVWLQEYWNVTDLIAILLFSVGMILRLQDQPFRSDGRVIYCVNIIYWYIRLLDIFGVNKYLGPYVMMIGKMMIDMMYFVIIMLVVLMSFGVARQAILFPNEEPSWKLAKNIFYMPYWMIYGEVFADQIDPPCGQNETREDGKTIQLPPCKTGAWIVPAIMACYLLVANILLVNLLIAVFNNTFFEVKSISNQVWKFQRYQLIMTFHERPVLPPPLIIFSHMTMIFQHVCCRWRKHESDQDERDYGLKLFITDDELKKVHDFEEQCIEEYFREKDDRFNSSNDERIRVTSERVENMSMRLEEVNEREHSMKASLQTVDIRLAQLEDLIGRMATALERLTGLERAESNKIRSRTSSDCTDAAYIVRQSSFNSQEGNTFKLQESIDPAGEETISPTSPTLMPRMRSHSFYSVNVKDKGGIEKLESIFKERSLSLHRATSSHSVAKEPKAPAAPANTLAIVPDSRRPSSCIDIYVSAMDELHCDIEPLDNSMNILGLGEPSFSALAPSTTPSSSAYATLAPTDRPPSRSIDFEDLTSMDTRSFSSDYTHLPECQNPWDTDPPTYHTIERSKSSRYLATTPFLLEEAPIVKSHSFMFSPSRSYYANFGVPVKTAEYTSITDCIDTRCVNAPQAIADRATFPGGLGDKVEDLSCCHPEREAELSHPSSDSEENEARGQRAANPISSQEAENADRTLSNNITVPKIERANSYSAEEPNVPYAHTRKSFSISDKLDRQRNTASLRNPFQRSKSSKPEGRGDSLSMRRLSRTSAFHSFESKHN
Briefly: TRPM3 ion channel driven Ca2+ uptake, Fluo-4 AM assay, mTRPM3alpha2 overexpressing flip-in HEK293 cells stimulated with pregnenolone sulfate (50 μM). In kind it is cell-based. To be noted: mTRPM3 overexpressing HEK293 cells stimulated with pregnenolone sulfate (50 μM), activity ranges A, B, C. In a few lines: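 Ca2+ influx via mouse TRPM3α2 was opened with pregnenolone sulfate (50 μM) and tracked by Fluo-4 AM fluorescence at 485/535 nm, read directly after adding about 2000 stably transfected HEK293 cells per well to compound. IC50 values come from percent inhibition scaled to vehicle and positive-control inhibitor signals.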
Regarding `Cn1nc2ccc(OCc3ccccc3F)cc2c1C(=O)NC1(C(N)=O)CCOC1` (single isomer, unassigned) [Cpd 166 - En1], the pIC50 (usually the negative decadic logarithm of the IC50, by convention in mol/L) was 4.70 to 6.00.
`CN1CCC(NC(=O)c2c3cc(OCc4cccnc4C(F)(F)F)ccc3nn2C)C1` (centres unmarked) [Cpd 040, 2-methyl-N-(1-methylpyrrolidin-3-yl)-5-{[2-(trifluoromethyl)pyridin-3-yl]methoxy}-2H-indazole-3-carboxamide]: the pIC50 was 4.70 to 6.00.
With `Cn1nc2ccc(OCc3cccnc3C(F)(F)F)cc2c1C(=O)NC(C)(C)CO` [Cpd 076, N-(1-hydroxy-2-methylpropan-2-yl)-2-methyl-5-{[2-(trifluoromethyl)pyridin-3-yl]methoxy}-2H-indazole-3-carboxamide] the figure was 4.70 to 6.00; with `Cc1ncsc1COc1ccc2nn(C)c(C(=O)NC3CCN(CC(F)(F)F)C3)c2c1` (centres unmarked) [Cpd 057, 2-methyl-5-[(4-methyl-1,3-thiazol-5-yl)methoxy]-N-[1-(2,2,2-trifluoroethyl)pyrrolidin-3-yl]-2H-indazole-3-carboxamide], 4.70 to 6.00; with `CN(C)CC(C)(CC(F)F)NC(=O)c1c2cc(OCc3ccccn3)ccc2nn1C` (single isomer, unassigned) [Cpd 229 - En1, N-[1-(dimethylamino)-4,4-difluoro-2-methylbutan-2-yl]-2-methyl-5-[(pyridin-2-yl)methoxy]-2H-indazole-3-carboxamide], 4.70 to 6.00.
Take `Cc1ncsc1COc1ccc2nn(C)c(C(=O)NC(C)(CO)C(=O)N(C)C)c2c1` (single isomer, unassigned) [Cpd 184 - En1]: the pIC50 is 4.70 to 6.00.
Compound `Cn1nc2ccc(OCc3ccccn3)cc2c1C(=O)NC(C)(CO)CC(F)F` (single isomer, unassigned) [Cpd 201 - En1, N-(4,4-difluoro-1-hydroxy-2-methylbutan-2-yl)-2-methyl-5-[(pyridin-2-yl)methoxy]-2H-indazole-3-carboxamide] gave a pIC50 greater than 6.00.
As for `Cn1nc2ccc(OCc3ccccc3F)cc2c1C(=O)NC1(CO)CCC1` [Cpd 094, 5-[(2-fluorophenyl)methoxy]-N-[1-(hydroxymethyl)cyclobutyl]-2-methyl-2H-indazole-3-carboxamide], the figure is 4.70 to 6.00; as for `Cn1nc2ccc(OCc3ccccn3)cc2c1C(=O)NC(CO)CO` [Cpd 259, N-(1,3-dihydroxypropan-2-yl)-2-methyl-5-[(pyridin-2-yl)methoxy]-2H-indazole-3-carboxamide], 4.70 to 6.00.
Regarding `Cc1ncsc1COc1ccc2nn(C)c(C(=O)NC3CNCCC3(F)F)c2c1` (single isomer, unassigned) [Cpd 211 - En2, N-(4,4-difluoropiperidin-3-yl)-2-methyl-5-[(4-methyl-1,3-thiazol-5-yl)methoxy]-2H-indazole-3-carboxamide], the pIC50 was greater than 6.00.
Compound `Cc1ncsc1COc1ccc2nn(C)c(C(=O)NCCN3CCOC3=O)c2c1` [Cpd 053, 2-methyl-5-[(4-methyl-1,3-thiazol-5-yl)methoxy]-N-[2-(2-oxo-1,3-oxazolidin-3-yl)ethyl]-2H-indazole-3-carboxamide] gave a pIC50 of less than 4.70.
With `Cn1nc2ccc(OCC(F)F)cc2c1C(=O)NC(C)(CO)C(N)=O` (single isomer, unassigned) [Cpd 187 - En1] the figure was less than 4.70; with `Cn1nccc1COc1ccc2nn(C)c(C(=O)NCC(C)(C)N3CCOCC3)c2c1` [Cpd 049, 2-methyl-5-[(1-methyl-1H-pyrazol-5-yl)methoxy]-N-[2-methyl-2-(morpholin-4-yl)propyl]-2H-indazole-3-carboxamide], less than 4.70; with `Cn1nccc1COc1ccc2nn(C)c(C(=O)NC3(C(N)=O)CCC3)c2c1` [Cpd 061, N-(1-carbamoylcyclobutyl)-2-methyl-5-[(1-methyl-1H-pyrazol-5-yl)methoxy]-2H-indazole-3-carboxamide], 4.70 to 6.00.
With `Cn1nc2ccc(OCC3CC3)cc2c1C(=O)NCC1CC1` [Cpd 133, 5-(cyclopropylmethoxy)-N-(cyclopropylmethyl)-2-methyl-2H-indazole-3-carboxamide] the figure was less than 4.70.
As for `Cn1nc2ccc(OCc3cccnc3C(F)(F)F)cc2c1C(=O)NC1(CO)CCOCC1` [Cpd 029, N-[4-(hydroxymethyl)oxan-4-yl]-2-methyl-5-{[2-(trifluoromethyl)pyridin-3-yl]methoxy}-2H-indazole-3-carboxamide], the figure is 4.70 to 6.00; as for `Cn1nc2ccc(OCc3ccccc3)cc2c1C(=O)NC1(C(N)=O)COC1` [Cpd 041, 5-(benzyloxy)-N-(3-carbamoyloxetan-3-yl)-2-methyl-2H-indazole-3-carboxamide], 4.70 to 6.00.
In turn, `Cc1ncsc1COc1ccc2nn(C)c(C(=O)NC3CCNC3)c2c1` (single isomer, unassigned) [Cpd 215 - En1] showed a pIC50 of less than 4.70.
With `Cn1nccc1COc1ccc2nn(C)c(C(=O)NC(C)(CO)C(N)=O)c2c1` (single isomer, unassigned) [Cpd 154 - En2] the figure was greater than 6.00; with `Cn1nc2ccc(OCc3ccccn3)cc2c1C(=O)NC(CO)CC(F)F` (single isomer, unassigned) [Cpd 228 - En1], greater than 6.00; with `Cn1nc2ccc(OCC3CC3)cc2c1C(=O)NCCNS(C)(=O)=O` [Cpd 140, 5-(cyclopropylmethoxy)-N-(2-methanesulfonamidoethyl)-2-methyl-2H-indazole-3-carboxamide], less than 4.70.
With `CC(=O)C(C)(CO)NC(=O)c1c2cc(OCc3ccccn3)ccc2nn1C` (single isomer, unassigned) [Cpd 232 - En2] the figure was greater than 6.00; with `Cn1nc2ccc(OCc3cccnc3C(F)(F)F)cc2c1C(=O)NC1CCN(CC(F)(F)F)C1` (centres unmarked) [Cpd 077, 2-methyl-N-[1-(2,2,2-trifluoroethyl)pyrrolidin-3-yl]-5-{[2-(trifluoromethyl)pyridin-3-yl]methoxy}-2H-indazole-3-carboxamide], 4.70 to 6.00.
As for `Cc1ncsc1COc1ccc2nn(C)c(C(=O)NC3CCNCC3(F)F)c2c1` (single isomer, unassigned) [Cpd 132 - En1], the figure is 4.70 to 6.00; as for `Cn1nc2ccc(OCc3cccnc3C(F)(F)F)cc2c1C(=O)NCC1CCC(=O)N1` (centres unmarked) [Cpd 054, 2-methyl-N-[(5-oxopyrrolidin-2-yl)methyl]-5-{[2-(trifluoromethyl)pyridin-3-yl]methoxy}-2H-indazole-3-carboxamide], 4.70 to 6.00; as for `Cc1ncsc1COc1ccc2nn(C)c(C(=O)N[C@@H](C)C(N)=O)c2c1` [Cpd 101, (2S)-2-({2-methyl-5-[(4-methyl-1,3-thiazol-5-yl)methoxy]-2H-indazol-3-yl}formamido)propanamide], 4.70 to 6.00.
`Cc1ncsc1COc1ccc2nn(C)c(C(=O)NCC(C)(C)CO)c2c1` [Cpd 024, N-(3-hydroxy-2,2-dimethylpropyl)-2-methyl-5-[(4-methyl-1,3-thiazol-5-yl)methoxy]-2H-indazole-3-carboxamide] gave a negative-log IC50 (pIC50) of 4.70 to 6.00.
As for `Cc1ncsc1COc1ccc2nn(C)c(C(=O)NC3(C(N)=O)CCOC3)c2c1` (single isomer, unassigned) [Cpd 170 -En1], the figure is 4.70 to 6.00; as for `C[C@H](NC(=O)c1c2cc(OCc3ccccn3)ccc2nn1C)C(N)=O` [Cpd 082, (2S)-2-({2-methyl-5-[(pyridin-2-yl)methoxy]-2H-indazol-3-yl}formamido)propanamide], 4.70 to 6.00.
